Data from patent US20040053974A1, “Medicinal compositions containing diuretic and insulin resistance-improving agent” (priority 2000, published 2004).
Marks after values point to notes of the source that are not given here.

Columns and labels:
Format in all cases: in vivo, rat
[1] = tested on: Zucker fatty rats; assay: Co-administration of furosemide or amiloride with compound A for 14 days: blood parameters, heart-weight, circulating serum volume; settings: for blood dilution (decreases in hematocrit value and the number of red blood cells) caused by compound A / increases in circulating serum volume caused by compound A / increases in heart-weight caused by compound A: orally 14 days, 1 ml/kg of furosemide 100 mg/ml or amiloride 10 mg/ml
Description: Zucker fatty rats (7 weeks old, SLC, Shizuoka, Japan) were grouped as 5 rats a group. Mean body weight, plasma glucose and glyceride levels, hematocrit value, and the number of red blood cells in each group were similar among the groups. The rats were allowed to take food pellets (F2, Funabashi Farm) and water ad libitum. In the control group, the rats were given only food pellets, while the rest of rats were administered 5-[4-(6-methoxy-1-methyl-1H-benzimidazol-2-ylmethoxy)benzyl]thiazolidine-2,4-dione hydrochloride (suspended in 0.5% solution of carboxymethylcellulose (CMC)) at a volume of 1 ml/kg orally by gavage. In the groups of rats administered the above compound with furosemide (100 mg/ml, suspended in 0.5% CMC solution) or amiloride (10 mg/ml, suspended in distilled water), these diuretics were orally administered by gavage for 14 successive days at a volume of 1 ml/kg. After the final administration, the rats were fasted overnight, and their blood was collected from the tail vein with a capillary treated with heparin and EDTA on the 15th day.
Plasma glucose level and blood cell parameters were determined using an automatic analyzer (plasma glucose: Glucoloader GX-T, A&T Corp., blood cell parameters: K-1000, Sysmex Corporation, Kobe, Japan). Triglyceride was detected by the absorbance method with a kit (Triglyceride-E Test Wako, Wako Pure Chemical Industries, Ltd.). Concentrations of insulin and leptin were detected with RIA kits (Rat Insulin RIA Kit, Linco Research Inc.). Furthermore, circulating serum volume was determined by the dilution method using Evans blue.

[2] = tested on: female Wistar rats; assay: Co-administration of furosemide with compound A: circulating serum volume, heart-weight, edema and hydrothorax (macroscopic observation)
Description: 5-[4-(6-Methoxy-1-methyl-1H-benzimidazol-2-ylmethoxy)benzyl]thiazolidine-2,4-dione hydrochloride (200 mg/kg) was repeatedly and orally administered by gavage for 3 or 7 successive days to female Wistar rats (7 weeks old, Charles River Japan, Inc.) and furosemide (120 mg/kg and 240 mg/kg) was dietarily administered during the period.

[3] = tested on: female Wistar rats; assay: Heart-weight and circulating serum volume (Evans blue method) after repeated oral administration; settings: for Ratio against control Heart-Weight / Ratio against control Circulating Serum volume: 200 mg/kg orally by gavage, female Wistar rats
Description: After 5-[4-(6-methoxy-1-methyl-1H-benzimidazol-2-ylmethoxy)benzyl]thiazolidine-2,4-dione hydrochloride (200 mg/kg) was repeatedly and orally administered by gavage for 3 or 7 successive days to female Wistar rats (7 weeks old, Charles River Japan, Inc.), circulating serum volume was determined by Evans blue methods and heart-weight recorded.

[4] = co-administered with compound A, Zucker fatty rats
[5] = Furosemide 120 mg/kg dietary, co-administered with Compound A 200 mg/kg orally, female Wistar rats
[6] = Furosemide 240 mg/kg dietary, co-administered with Compound A 200 mg/kg orally, female Wistar rats
[7] = furosemide 120 and 240 mg/kg dietary co-administered with compound A 200 mg/kg
[8] = furosemide 120 and 240 mg/kg dietary co-administered with compound A 200 mg/kg, FIG. 1
[9] = 7 successive days, n = 12, p < 0.01
[10] = 200 mg/kg orally, after administration for both 3 and 7 days
[11] = orally by gavage, 14 successive days, Zucker fatty rats, FIG. 2
[12] = Compound A 200 mg/kg orally, Furosemide 0, female Wistar rats

NS(=O)(=O)c1cc(C(=O)O)c(NCc2ccco2)cc1Cl [Furosemide, furosemide]
blood dilution (decreases in hematocrit value and the number of red blood cells) caused by compound A [1, 4]: suppressed
increases in circulating serum volume caused by compound A [1, 4]: suppressed
increases in heart-weight caused by compound A [1, 4]: suppressed
Macroscopic Observation, Edema: Subcutaneous tissue (incidence) [2, 5]: 0/12
Macroscopic Observation, Edema: brown adipose tissue (incidence) [2, 5]: 12/12
Macroscopic Observation, Edema: interstitial tissue of thymus (incidence) [2, 5]: 0/12
Macroscopic Observation, Hydrothorax (incidence) [2, 5]: 2/12
mean weight of thymus [2, 5]: 450.6 mg
Macroscopic Observation, Edema: Subcutaneous tissue (incidence) [2, 6]: 0/12
Macroscopic Observation, Edema: brown adipose tissue (incidence) [2, 6]: 10/12
Macroscopic Observation, Edema: interstitial tissue of thymus (incidence) [2, 6]: 0/12
Macroscopic Observation, Hydrothorax (incidence) [2, 6]: 0/12
mean weight of thymus [2, 6]: 375.9 mg
Decreases in the number of circulating red blood cells produced by compound A [2, 7]: prevented
edema and hydrothorax associated with administration of compound A [2, 7]: suppressed
increases in circulating serum volume elicited by compound A [2, 8]: suppressed
increases in heart-weight elicited by compound A [2, 8]: suppressed

COc1ccc2nc(COc3ccc(CC4SC(=O)NC4=O)cc3)n(C)c2c1.Cl (stereo not shown) [compound A, 5-[4-(6-methoxy-1-methyl-1H-benzimidazol-2-ylmethoxy)benzyl]thiazolidine-2,4-dione hydrochloride]
Ratio against control Heart-Weight ([3]; 3 successive days, n = 5-6): 1.03^a)
Ratio against control Circulating Serum volume ([3]; 3 successive days, n = 5-6, p < 0.05): 1.18^a)*
Ratio against control Circulating Serum volume [3, 9]: 1.30^b)**
Ratio against control Heart-Weight [3, 9]: 1.22^b)**
Circulating serum volume [3, 10]: increased
heart-weight [3, 10]: increased
blood glucose levels ([1]; orally by gavage, 14 successive days, Zucker fatty rats): decreasing
HOMA-R, an indicator of insulin resistance [1, 11]: remarkably decreased
heart-weight [1, 11]: increases
hematocrit value (dilution of the blood) [1, 11]: decreases
number of red blood cells (dilution of the blood) [1, 11]: decreases
triglyceride levels [1, 11]: remarkably decreased
Macroscopic Observation, Edema: Subcutaneous tissue (incidence) [2, 12]: 1/12
Macroscopic Observation, Edema: brown adipose tissue (incidence) [2, 12]: 12/12
Macroscopic Observation, Edema: interstitial tissue of thymus (incidence) [2, 12]: 1/12
Macroscopic Observation, Hydrothorax (incidence) [2, 12]: 6/12
mean weight of thymus [2, 12]: 521.4 mg
number of circulating red blood cells ([2]; compound A 200 mg/kg orally, female Wistar rats): Decreases

N=C(N)NC(=O)c1nc(Cl)c(N)nc1N [amiloride]
ameliorating effects compared with furosemide ([1]; amiloride at 1/10 the dose of furosemide, co-administered with compound A, Zucker fatty rats): at least as potent as those of furosemide
blood dilution (decreases in hematocrit value and the number of red blood cells) caused by compound A [1, 4]: suppressed
increases in circulating serum volume caused by compound A [1, 4]: suppressed
increases in heart-weight caused by compound A [1, 4]: suppressed
suppression of side effects caused by insulin sensitizers, relative to diuretic action ([1]; rats co-treated with amiloride and compound A): more potent than those predicted from its diuretic action
